Legend:
[1] = system: Musca domestica, susceptible strain WHO(N); assay: Contact efficacy against houseflies on filter papers in glass dishes; format: in vivo; settings: % a.i. conc. in acetone on filter papers, Table 97
Protocol: Male Musca domestica, susceptible strain WHO(N), were used.
A solution of the active ingredient in acetone was prepared. A concentration row was made. After evaporation of the acetone (30′), the dishes were closed by a glass lid and transferred into the test room. One day later twenty flies, anaesthetized with CO2, are counted into each dish. At regular intervals, knock down was recorded (cumulatively). Each test consisted of one replicate. […]

[2] = system: Musca domestica, susceptible strain WHO(N); assay: Topical insecticide application to houseflies; format: in vivo; settings: 0.5 μl per fly, % a.i. conc. in acetone, Table 95
Protocol: Male Musca domestica, susceptible strain WHO(N), or other strains were used.
The flies were anaesthetized with CO2, and ten individuals were positioned (on their back) on a filter paper which was on the top of a carbon dioxide emitting device. […]
Afterwards the insects were transferred into a beaker closed by a gauze lid with a water saturated cotton pad on the top.
At regular intervals, mortality was recorded (cumulatively).

[3] = system: susceptible/normal German cockroach (Monheim strain), Blattella germanica; assay: Knockdown/mortality of male cockroaches under continuous exposure on treated glazed tile; format: in vivo; settings: glazed tile; for Average % Knockdown & Mortality after 3 hr / Average % Knockdown & Mortality after 5 hr / Average % Knockdown & Mortality after 24 hr / Average % Knockdown & Mortality after 1 hr: Table 61, German cockroach (Monheim), continuous exposure; for Average % Knockdown & Mortality after 1 hr: adjuvant = Compound A 1% + Compound B 0.5%
Method in brief: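 Male cockroaches continuously exposed on treated glazed tile, dried overnight before exposure; at least three replicates. Knockdown/mortality scored at intervals from 5 or 10 min, over runs lasting 20 min to 24 h depending on test.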

[4] = system: Argentine ant, Linepithema humile; assay: Knockdown/mortality of ant workers under continuous exposure on treated glazed tile; settings: continuous exposure; for Average % Mortality after 15 min: adjuvant = Compound A 1% + Compound B 0.5%
Method in brief: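 0.5% AI imidacloprid in acetone, alone or with 0.1, 1.0 or 5.0% additive (benzenepropanoic acid, oleic acid, methyl oleate, methyl linoleate, methyl palmitate or BHA), 1 ml dried overnight on glazed tile (~161 cm^2). Ten workers confined under continuous exposure, water from 3 h; knockdown/mortality scored at intervals and 24 h; ≥3 replicates.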

[5] = system: Red Imported Fire ant (RIFA), Solenopsis invicta; assay: as above; format: in vivo; settings: for Average % Mortality after 1 hr / Average % Mortality after 1.5 hr / Average % Mortality after 2 hr / Average % Mortality after 3 hr / Average % Mortality after 30 min: Table 60, Red Imported Fire ant, continuous exposure; for Average % Mortality after 30 min: adjuvant = Compound A 1% + Compound B 0.5%
Description: Treatments were allowed to dry overnight. […] Treatments were replicated minimum three times.
(§1) Treatments were allowed to dry overnight. […] Treatments were replicated a minimum of three times.

[6] = system: Odorous House ant, Tapinoma sessile; assay: as above; format: in vivo; settings: Table 59, Odorous House ant, glazed tile, continuous exposure; for Average % Knockdown & Mortality after 15 min: adjuvant = Compound A 1% + Compound B 0.5%
Method in brief: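 Each tile surface (about 5″×5″) was treated, left to dry overnight and tested in a minimum of three replicates.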

[7] = system: housefly, Musca domestica; assay: Housefly continuous exposure on treated glazed tile (paper cup arena); format: in vivo; settings: Table 58, housefly, glazed tile, continuous exposure; for Average % Knockdown & Mortality after 1 hr: adjuvant = Compound A 1% + Compound B 0.5%
Description: Treatments were allowed to dry overnight. The housefly testing arena consisted of a 16 oz. paper cup where the bottom of the cup was removed and replaced with a piece of standard window screen. Ten adult houseflies (mixed ratio) were placed in each cup and covered with a 4″×5″ index card to prevent escape. Houseflies were continuously exposed to the treatment by inverting the testing arena and sliding the cup from the index card to the treated tile surface. Treatments were replicated a minimum of three times.

[8] = system: bait averse/resistant German cockroach (IHOP strain), Blattella germanica; assay: Knockdown/mortality of male cockroaches under continuous exposure on treated glazed tile; format: in vivo; settings: German cockroach IHOP
Protocol: Treatments were allowed to dry overnight. […] Treatments were replicated a minimum of three times. Evaluations for cockroach knockdown/mortality were made at various intervals for 1 hour and at 24 hours after exposure.
Treatments were allowed to dry overnight. […] Evaluations for cockroach knockdown/mortality were made at various intervals and at 60 minutes after exposure.
as §1

[9] = Table 57, Argentine ant, glazed tile

SMILES | Average % Knockdown & Mortality after 3 hr [3] | Average % Knockdown & Mortality after 5 hr [3] | Average % Knockdown & Mortality after 24 hr [3] | Average % Knockdown & Mortality after 1 hr [3] | Average % Mortality after 30 min [4, 9] | Average % Mortality after 45 min [4, 9] | Average % Mortality after 60 min [4, 9] | Average % Mortality after 15 min [4, 9] | Average % Mortality after 1 hr ([5]; glazed tile) | Average % Mortality after 1.5 hr ([5]; glazed tile) | Average % Mortality after 2 hr ([5]; glazed tile) | Average % Mortality after 3 hr ([5]; glazed tile) | Average % Mortality after 30 min ([5]; glazed tile) | Average % Knockdown & Mortality after 30 min [6] | Average % Knockdown & Mortality after 45 min [6] | Average % Knockdown & Mortality after 60 min [6] | Average % Knockdown & Mortality after 2 hr [6] | Average % Knockdown & Mortality after 15 min [6] | Average % Knockdown & Mortality after 3 hr [7] | Average % Knockdown & Mortality after 5 hr [7] | also measured
Cc1ccc(O)c(-n2nc3ccccc3n2)c1 [0.5% Compound B] | – | – | – | – | – | – | – | – | – | – | – | – | – | – | – | – | – | – | – | – | % knock down after ([1]; 15′): 0%; % knock down after ([1]; 30′): 0%; % knock down after ([1]; 1 h): 0%; % knock down after ([1]; 1.5 h): 0%; % knock down after ([1]; 2 h): 0%; % knock down after ([1]; 3 h): 0%; % knock down after ([1]; 4 h): 0%; % knock down after ([1]; 6 h): 0%; % knock down after ([1]; 1 d): 70%; % Mortality after ([2]; 15′): 0%; % Mortality after ([2]; 30′): 0%; % Mortality after ([2]; 1 h): 0%; % Mortality after ([2]; 2 h): 0%; % Mortality after ([2]; 4 h): 0%; % Mortality after ([2]; 1 d): 60%
CC[S+]([O-])c1c(C#N)nn(-c2c(Cl)cc(C(F)(F)F)cc2Cl)c1N (stereo not shown) [Ethiprole (0.01%)] | 0% | 7% | 13% | 0% | 0% | 0% | 0% | 0% | 0% | 0% | 0% | 3% | 0% | 0% | 0% | 0% | 3% | 0% | 0% | 0% | Average % Mortality after 10 min ([4]; Table 54, Trial 1, acetone solution on glazed tile): 0%; Average % Mortality after 30 min ([4]; Table 54, Trial 1, glazed tile): 0%; Average % Mortality after 60 min ([4]; Table 54, Trial 1, glazed tile): 0%; Average % Mortality after 90 min ([4]; Table 54, Trial 1, glazed tile): 0%; Average % Mortality after 2 hr ([4]; Table 54, Trial 1, glazed tile): 0%; Average % Mortality after 4 hr ([4]; Table 54, Trial 1, glazed tile, 4 hr): 16%; Average % Mortality after 24 hr ([4]; Table 54, Trial 1, glazed tile): 100%; Average % Mortality after 10 min ([4]; Table 55, Trial 2, glazed tile): 0%; Average % Mortality after 30 min ([4]; Table 55, Trial 2, glazed tile): 0%; Average % Mortality after 60 min ([4]; Table 55, Trial 2, glazed tile): 0%; Average % Mortality after 90 min ([4]; Table 55, Trial 2, glazed tile): 0%; Average % Mortality after 2 hr ([4]; Table 55, Trial 2, glazed tile): 0%; Average % Mortality after 3 hr ([4]; Table 55, Trial 2, glazed tile, 3 hr): 6%; Average % Mortality after 24 hr ([4]; Table 55, Trial 2, glazed tile): 72%; Average % Knockdown & Mortality after 7 hr [7]: 3%; Average % Knockdown & Mortality after 24 hr [7]: 100%; Average % Knockdown & Mortality after 1 hr [7]: 0%
CC[S+]([O-])c1c(C#N)nn(-c2c(Cl)cc(C(F)(F)F)cc2Cl)c1N (stereo not shown) [Ethiprole (0.1%)] | 27% | 33% | 80% | 0% | 0% | 0% | 0% | 0% | 0% | 0% | 0% | 10% | 0% | 0% | 0% | 0% | 0% | 0% | 0% | 3% | Average % Knockdown & Mortality after 7 hr [7]: 10%; Average % Knockdown & Mortality after 24 hr [7]: 100%; Average % Knockdown & Mortality after 1 hr [7]: 0%
CC1(C)C(C=C(Cl)Cl)C1C(=O)OCc1cccc(Oc2ccccc2)c1 (stereo not shown) [permethrin, reference compound] | – | – | – | – | – | – | – | – | – | – | – | – | – | – | – | – | – | – | – | – | toxicity / efficacy of the substance alone (summary in words) [8]: very fast acting; toxicity / efficacy of the substance alone (summary in words) ([3]; German cockroach Monheim): effective; toxicity / efficacy of the substance alone (summary in words) ([5]; RIFA, glazed tile): active; time at which near 100% mortality was achieved ([5]; permethrin 0.5% AI with or without adjuvant (FIG. 39)): about 13 minutes
